Measurements: patent US10494332B2, “Protein tyrosine phosphatases or SHP2 inhibitors and uses thereof” (Indiana University Research and Technology Corporation, priority 2015, dated 2019)
Where “and” joins values, the source holds several entries; their conditions need not be identical. Identical values can stand only once. Entries after “also recorded” stand apart in the source; their conditions may differ. Like-named read-outs stand apart in the source and are kept apart here.

Key:
SHP2 [1] = molecular target: T1, SHP2 (Homo sapiens, UniProt Q06124); experiment: SHP2 phosphatase inhibition assay (pNPP); assay type: biochemical; details: for Fold selectivity for SHP2 against PTPs examined: cefsulodin: with the exception of SHP1; for Mode of SHP2 inhibition: with respect to pNPP
T1 sequence (Q06124 224-528): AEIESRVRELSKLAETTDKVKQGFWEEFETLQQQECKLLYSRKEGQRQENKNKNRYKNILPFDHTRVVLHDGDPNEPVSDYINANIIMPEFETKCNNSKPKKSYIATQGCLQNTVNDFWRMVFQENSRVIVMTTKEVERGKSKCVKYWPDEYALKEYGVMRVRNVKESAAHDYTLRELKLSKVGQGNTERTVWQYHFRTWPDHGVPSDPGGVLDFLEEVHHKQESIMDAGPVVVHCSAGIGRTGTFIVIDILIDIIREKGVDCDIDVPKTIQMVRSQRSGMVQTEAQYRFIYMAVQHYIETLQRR

SHP2/E508A = SHP2/E508A (Homo sapiens, UniProt Q06124, E508A); experiment: SHP2 mutant inhibition assay (pNPP); assay type: biochemical; details: pH 7.0
Chain of SHP2/E508A (Q06124 224-528 E508A): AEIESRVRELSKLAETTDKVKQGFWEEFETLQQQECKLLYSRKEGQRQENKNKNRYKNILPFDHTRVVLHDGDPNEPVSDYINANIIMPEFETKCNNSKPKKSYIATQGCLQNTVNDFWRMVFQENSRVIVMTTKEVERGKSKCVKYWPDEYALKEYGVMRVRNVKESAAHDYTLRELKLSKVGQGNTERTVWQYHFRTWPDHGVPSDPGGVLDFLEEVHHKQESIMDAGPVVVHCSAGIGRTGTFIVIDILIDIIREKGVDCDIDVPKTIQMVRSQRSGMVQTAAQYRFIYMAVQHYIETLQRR

SHP2/R362A = SHP2/R362A (Homo sapiens, UniProt Q06124, R362A); experiment: SHP2 mutant inhibition assay (pNPP); assay type: biochemical
Chain of SHP2/R362A (Q06124 224-528 R362A): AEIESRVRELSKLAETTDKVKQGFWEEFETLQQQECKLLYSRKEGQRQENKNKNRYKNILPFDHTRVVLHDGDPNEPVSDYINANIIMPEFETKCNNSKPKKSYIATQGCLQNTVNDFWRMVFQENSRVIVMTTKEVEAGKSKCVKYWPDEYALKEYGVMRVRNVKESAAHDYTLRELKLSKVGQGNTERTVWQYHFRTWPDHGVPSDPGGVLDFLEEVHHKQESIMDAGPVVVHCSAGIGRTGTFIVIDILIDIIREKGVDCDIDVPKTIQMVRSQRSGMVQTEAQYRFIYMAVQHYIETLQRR

[2] = Stability in buffer solutions by LC-MS; assay type: physicochemical
Experimental: (§1) Agilent Technologies 6130 quadrupole LC-MS instrument was used for the LC-MS studies. A C18 reserved phase column (phenomenex, 50×4.6 mm) was used as stationary phase, water and methanol (both containing 0.1% formic acid) were used as mobile phase (gradient: 0-100% methanol, flow 0.8 mL/min, run time 15 minutes), and UV absorbance at the fixed wavelength of 254 nm and positive and negative ESI-MS data were recorded. The sample was adjusted to have a concentration at 0.1 mg/mL, and the injection volume of each sample was 0.2 μL. The retention time and corresponding ESI-MS data were used as identity of molecules.

SHP2 [3] = molecular target: SHP2 (Homo sapiens, UniProt Q06124); experiment: Covalent modification of SHP2 by QTOF ESI-MS / LC-MS; details: 100 μM compound; cefsulodin three hours, phenyl vinyl sulfone 10 minutes
Experimental: Agilent 6520 Accurate-Mass was used for the Q-TOF ESI-MS studies. Water and acetonitrile (both containing 0.1% formic acid) were used as eluent (80% water, flow 50 μL/min, run time 5 minutes). ESI positive mode was used with mass range from 300 to 1700, the gas temperature was 325° C., and vaporizer temperature was: […]. The sample was adjusted to have a concentration at 0.1 mg/mL, the injection volume of each sample was 1 μL. Mass hunter software was used for protein deconvolution data analysis to calculate the molecular weight of the protein.
as §1

PTPμ = PTPμ (Homo sapiens, UniProt P28827); experiment: biochemical
Chain of PTPμ (P28827 21-1452): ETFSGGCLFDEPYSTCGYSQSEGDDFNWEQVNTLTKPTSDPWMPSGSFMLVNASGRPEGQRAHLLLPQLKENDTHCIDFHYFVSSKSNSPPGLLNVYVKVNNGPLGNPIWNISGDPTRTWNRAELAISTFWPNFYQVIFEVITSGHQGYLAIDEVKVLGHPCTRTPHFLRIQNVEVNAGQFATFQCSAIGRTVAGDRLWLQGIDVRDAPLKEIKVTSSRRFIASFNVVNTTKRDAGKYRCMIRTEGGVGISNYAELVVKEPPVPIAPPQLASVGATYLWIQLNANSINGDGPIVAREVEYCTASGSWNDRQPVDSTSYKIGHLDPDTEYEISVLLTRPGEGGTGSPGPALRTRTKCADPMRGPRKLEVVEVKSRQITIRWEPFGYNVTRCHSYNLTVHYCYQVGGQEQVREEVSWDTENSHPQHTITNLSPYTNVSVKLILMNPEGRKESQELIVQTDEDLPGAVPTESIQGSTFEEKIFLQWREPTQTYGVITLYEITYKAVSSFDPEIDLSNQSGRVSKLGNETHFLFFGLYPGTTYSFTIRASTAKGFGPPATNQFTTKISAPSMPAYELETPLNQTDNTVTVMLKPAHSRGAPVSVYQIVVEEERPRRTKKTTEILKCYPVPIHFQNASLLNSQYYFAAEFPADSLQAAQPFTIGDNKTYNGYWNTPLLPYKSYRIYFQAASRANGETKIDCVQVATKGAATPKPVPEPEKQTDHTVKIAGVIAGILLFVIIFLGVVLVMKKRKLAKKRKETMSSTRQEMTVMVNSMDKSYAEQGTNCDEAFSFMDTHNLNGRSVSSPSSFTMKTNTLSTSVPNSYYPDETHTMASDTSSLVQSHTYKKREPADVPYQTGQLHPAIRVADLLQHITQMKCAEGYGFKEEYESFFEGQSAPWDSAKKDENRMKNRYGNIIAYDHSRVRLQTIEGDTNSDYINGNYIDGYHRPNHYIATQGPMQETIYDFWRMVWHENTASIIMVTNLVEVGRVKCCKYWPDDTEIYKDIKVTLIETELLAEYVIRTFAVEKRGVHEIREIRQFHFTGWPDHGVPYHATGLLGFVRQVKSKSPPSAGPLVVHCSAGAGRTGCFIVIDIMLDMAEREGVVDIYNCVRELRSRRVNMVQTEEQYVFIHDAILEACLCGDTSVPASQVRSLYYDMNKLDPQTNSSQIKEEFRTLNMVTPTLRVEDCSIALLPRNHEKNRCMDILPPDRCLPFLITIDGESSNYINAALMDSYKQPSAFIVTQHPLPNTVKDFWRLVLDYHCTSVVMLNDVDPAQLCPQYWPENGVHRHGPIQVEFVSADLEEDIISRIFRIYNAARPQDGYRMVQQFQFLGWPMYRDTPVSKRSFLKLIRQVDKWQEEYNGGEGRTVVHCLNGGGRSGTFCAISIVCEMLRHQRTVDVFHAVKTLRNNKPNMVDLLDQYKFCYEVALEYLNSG

PP5 = molecular target: T2, PP5 (Homo sapiens, UniProt P53041); experiment: biochemical
T2 sequence (P53041 1-499): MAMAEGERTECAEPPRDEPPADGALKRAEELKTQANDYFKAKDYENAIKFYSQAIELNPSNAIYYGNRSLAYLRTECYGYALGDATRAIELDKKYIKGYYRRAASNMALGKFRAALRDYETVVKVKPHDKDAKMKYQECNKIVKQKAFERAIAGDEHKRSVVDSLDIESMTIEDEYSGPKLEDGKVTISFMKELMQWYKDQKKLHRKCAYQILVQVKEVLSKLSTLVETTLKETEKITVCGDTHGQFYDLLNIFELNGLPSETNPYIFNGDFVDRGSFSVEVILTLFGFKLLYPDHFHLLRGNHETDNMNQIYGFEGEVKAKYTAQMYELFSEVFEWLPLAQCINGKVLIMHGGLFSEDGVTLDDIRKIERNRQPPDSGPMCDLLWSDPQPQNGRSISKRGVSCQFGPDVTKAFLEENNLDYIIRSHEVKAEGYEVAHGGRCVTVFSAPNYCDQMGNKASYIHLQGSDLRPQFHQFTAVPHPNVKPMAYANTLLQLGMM

[4] = system: H1975 non-small cell lung cancer (NSCLC) cell line; experiment: MTT cell proliferation assay; assay type: cell-based, human; details: 20 μM and 40 μM, 2 days
Experimental: (§2) Human non-small cell lung carcinoma cell line H1975 was cultured at 37° C. and 5% CO2 in RPMI-1640 (Corning) supplemented with 10% fetal bovine serum (HyClone). Human breast cancer cell line MDA-MB-231 was cultured in DMEM supplemented with 10% fetal bovine serum. For cell proliferation assay, 2˜3×10^3 cells were seeded in each well of 96-well plates. After treating cells with compounds for 2 days, cells were incubated with 50 μg/ml MTT (3-(4,5-Dimethylthiazol-2-yl)-2,5-diphenyltetrazolium bromide) for ˜3-4 hours. Then, the culture medium was removed, DMSO was added to dissolve the formazan crystals. Wells containing only media were used for background correction. The optical density was measured spectrophotometrically at 540 nm. For signaling analysis, cells were serum-starved overnight followed by treatment with vehicle or compounds for 3 hours, and then either left un-stimulated or stimulated with 5 μg/ml EGF or 10 nM PMA (Sigma) for indicated time. Cells were lysed and the lysates were electrophoresed on a 10% polyacrylamide gel, and then transferred to a nitrocellulose membrane, and probed with anti-phospho-ERK1/2 and anti-ERK1/2 (Cell Signaling) antibodies followed by incubation with horseradish peroxidase-conjugated secondary antibodies. The blots were developed by the enhanced chemiluminescence technique using the SuperSignal West Pico Chemiluminescent substrate (Pierce).

[5] = system: MDA-MB-231 breast cancer cell line; experiment: MTT cell proliferation assay; assay type: cell-based, human; details: 20 μM and 40 μM, 2 days
Experimental: as §2

[6] = system: EGF-mediated ERK1/2 phosphorylation in H1975 cells; experiment: EGF-induced ERK1/2 phosphorylation immunoblot; assay type: cell-based, human; details: compound 7 at 40 μM
Experimental: as §2

[7] = system: PMA-stimulated ERK1/2 phosphorylation; experiment: PMA-induced ERK1/2 phosphorylation immunoblot; assay type: cell-based, human
Experimental: as §2

SKBR3 cells = experiment: Cell growth in 3D Matrigel; assay type: cell-based; details: 5 days
Experimental: (§3) Approximately 300,000 SKBR3 cells were seeded into 150 μL of growth factor reduced Matrigel (BD) that was then covered with 2 mLs of media containing either 20 μL vehicle (DMSO) or the indicated concentrations of compound 2. Cells were then imaged at 24-hour intervals using a NIKON SMZ1500 stereomicroscope. After 5 days the cells were recovered from the Matrigel by the following method. Media was aspirated and cells were washed with 500 μL of cold PBS. 150 μL of RIPA lysis buffer supplemented with ProteCEASE-50. EDTA Free protease inhibitors (GBiosciences) was added to the Matrigel. Cells were scraped into a slurry and instantly frozen using dry ice for 5 minutes. After thawing tubes were spun down at 4° C. for 10 minutes at 14K rpm. Proteins were then resolved by SDS-PAGE and the relative levels of total and phospho-ERK1/2 were detected by immunoblot analysis.

[8] = system: ERK1/2 phosphorylation in SKBR3 cells; experiment: ERK1/2 immunoblot of cells recovered from Matrigel; assay type: cell-based; details: 5 days
Experimental: as §3

M. tuberculosis H37Rv = experiment: Microplate Alamar Blue assay (MABA) MIC; assay type: cell-based, Mycobacterium tuberculosis
M. tuberculosis Erdman = experiment: Microplate Alamar Blue assay (MABA) MIC; assay type: cell-based; details: Mycobacterium tuberculosis, minimum inhibitory concentration, read-out: In vitro anti-Mtb activity MABA-MIC Erdman
[9] = system: M. tuberculosis (Erdman and H37Rv) in J774 macrophages; experiment: Macrophage assay: growth of M. tuberculosis in IFN-γ activated J774 macrophages; assay type: cell-based, Mycobacterium tuberculosis
[10] = Pharmacokinetics and bioavailability in guinea pigs; assay type: in vivo, guinea pig; details: oral
Experimental: All drugs were suspended in 1% DMSO, 0.5% DEA, 48.5% PEG 400, and 50% water. Blood was collected for analysis of these drugs in plasma pre-dose and at 1, 4, 8, 24, and 48 h post-dose. Plasma was separated and stored at −70° C. until analysis. Plasma drug concentrations were determined by liquid chromatography-mass spectrometry and liquid chromatography-tandem mass spectrometry over the concentration range of 0.005-1 mg/L with dilution to 10 mg/L. Pharmacokinetic variables were calculated from individual drug concentration-time data using non-compartmental methods as implemented in WinNonlin version 5.0 (Pharsight, Mountain View, Calif.) as described earlier.

[11] = Example 9: SHP2 catalytic domain 20 nM, pNPP 3 mM, pH 7.0, 25° C., read-out: IC50 SHP2

Structure (SMILES): NC(=O)c1cc[n+](CC2=C(C(=O)O)N3C(=O)[C@@H](NC(=O)[C@@H](c4ccccc4)S(=O)(=O)[O-])[C@H]3SC2)cc1 [Cefsulodin, reference compound]
- IC50 (SHP2 [1]; [11]): 16.8 µM and 16.7 µM
- Ki (SHP2 [1]; Lineweaver-Burk, pNPP as substrate): 6.6 ± 0.2 µM
- Fold selectivity for SHP2 against PTPs examined (SHP2 [1]): greater than 10 fold
- IC50 (SHP2 [1]; incubated with SHP2 for 30 minutes prior to addition of pNPP, read-out: IC50 SHP2, inhibitor pre-mixed with SHP2): 16.8 ± 1.8 µM
- IC50 (SHP2 [1]; incubated with pNPP for 30 minutes prior to addition of SHP2, read-out: IC50 SHP2, inhibitor pre-mixed with pNPP): 17.5 ± 2 µM
- Mode of SHP2 inhibition (SHP2 [1]): competitive inhibitor
- Mode of SHP2 inhibition (SHP2 [1]; listed as cefsulodin): competitive and reversible SHP2 inhibitor
- IC50 (SHP2/E508A): 19 ± 1 µM
- IC50 (SHP2/R362A; pNPP, pH 7.0): 46.5 ± 4.9 µM
- Fold increase of IC50 by replacement of R362 with alanine (SHP2/R362A; vs wild-type SHP2): 3 fold
- Degradation in pH 5.8 MES buffer ([2]; 20 mM MES, 250 mM NaCl, 1 mM EDTA, LC-MS): negligible
- Degradation in pH 7.4 CBTP buffer ([2]; 33 mM Citric acid, 67 mM BIS-TRIS Propane, LC-MS): obvious
- Degradation in CBTP buffer at pH 9.1 ([2]; LC-MS): further accelerated
- Time stable in MES buffer pH=5.8 ([2]; LC-MS): at least 2 days
- Time until compound was gone in CBTP buffer pH=9.1 ([2]; LC-MS): ≤ 12 h
- Time to complete degradation under crystallization condition ([2]; final pH=7.1, 20° C., with SHP2 and DTT): ≤ 2 days
- Covalent adduct formation with SHP2 (QTOF ESI-MS) (SHP2 [3]): no covalent adduct formation
- IC50 (PTPμ): > 200 µM
- IC50 (PP5): > 200 µM

Structure (SMILES): O=C(Nc1ccc(I)cc1)C(=O)Nc1ccc(NC(=O)C(c2ccccc2)S(=O)(=O)O)cc1 (stereo not drawn) [Compound 2, 2-((4-(2-((4-iodophenyl)amino)-2-oxoacetamido)phenyl)amino)-2-oxo-1-phenylethanesulfonic acid]
- IC50 (SHP2 [1]; [11]): 1.51 ± 0.06 µM
- Fold selectivity for SHP2 against PTPs examined (SHP2 [1]): at least 4 fold
- H1975 cell proliferation (MTT) [4]: reduce H1975 cell proliferation in a dose dependent manner; also recorded: dose dependently inhibited; also recorded: significantly (**p<0.01) reduced cell proliferation
- MDA-MB-231 cell survival/growth (MTT) [5]: dose dependently inhibited; also recorded: significantly (**p<0.01) reduced cell survival
- Effect on EGF-mediated ERK1/2 phosphorylation [6]: reduced EGF-mediated ERK1/2 phosphorylation in a dose-dependent manner; also recorded: decrease the EGF-mediated ERK1/2 phosphorylation in a dose dependent manner
- Effect on PMA-stimulated ERK1/2 phosphorylation [7]: no effect on PMA-stimulated ERK1/2 phosphorylation
- SKBR3 cell growth in Matrigel (SKBR3 cells; 20 μM): partial inhibition
- SKBR3 cell growth in Matrigel (SKBR3 cells; 40 μM): almost completely absent
- ERK1/2 activity in SKBR3 cells in Matrigel ([8]; 20 μM): partial inhibition
- ERK1/2 activity in SKBR3 cells in Matrigel ([8]; 40 μM): barely detectable
- IC50 (PTPμ): > 10 µM
- IC50 (PP5): > 10 µM

Structure (SMILES): O=C(Nc1ccc(NC(=O)C(c2ccccc2)S(=O)(=O)O)cc1)C(=O)Nc1ccc(-c2ccccc2)cc1 (stereo not drawn) [Compound 5, 2-((4-(2-([1,1′-biphenyl]-4-ylamino)-2-oxoacetamido)phenyl)amino)-2-oxo-1-phenylethanesulfonic acid]
- IC50 (SHP2 [1]; [11]): 1.36 ± 0.04 µM
- H1975 cell proliferation (MTT) [4]: reduce H1975 cell proliferation in a dose dependent manner; also recorded: significantly (**p<0.01) reduced cell proliferation
- MDA-MB-231 cell survival/growth (MTT) [5]: significantly (**p<0.01) reduced cell survival
- IC50 (PTPμ): > 10 µM
- IC50 (PP5): > 10 µM

Structure (SMILES): O=C(Nc1ccccc1)C(=O)Nc1ccc(NC(=O)C(c2ccccc2)S(=O)(=O)O)cc1 (stereo not drawn) [Compound 7, 2-oxo-2-((4-(2-oxo-2-(phenylamino)acetamido)phenyl)amino)-1-phenylethanesulfonic acid]
- Inhibition of SHP2 at 50 μM (SHP2 [1]; 50 μM): no inhibition
- IC50 (SHP2 [1]; [11]): > 50 µM
- H1975 cell proliferation (MTT) [4]: ineffective; also recorded: did not
- MDA-MB-231 cell survival/growth (MTT) [5]: did not
- Effect on EGF-mediated ERK1/2 phosphorylation [6]: no appreciable effect; also recorded: failed to block EGF-mediated ERK1/2 phosphorylation

Structure (SMILES): O=C(O)c1cc2c(C#Cc3cccc(C(F)(F)F)c3)c(-c3ccccc3)oc2cc1O [Compound L01Z08]
- Activity in standard MIC assay (M. tuberculosis H37Rv): inactive
- MIC (M. tuberculosis H37Rv; Mycobacterium tuberculosis, H37RV, minimum inhibitory concentration, read-out: In vitro anti-Mtb activity MABA-MIC H37Rv): > 10 µM
- MIC (M. tuberculosis Erdman): > 10 µM
- Anti-Mtb activity in infected macrophages ([9]; J774A.1 macrophages, low micromolar concentrations): potent anti-Mtb activity
- IC90 ([9]; Mycobacterium tuberculosis, J774, IC90 in macrophages activated with interferon-γ, read-out: In vitro anti-Mtb activity, Mtb-infected macrophages (IC90)): < 5 µM
- Oral bioavailability and half-life in guinea pigs [10]: good oral bioavailability and half-life

Structure (SMILES): C=CS(=O)(=O)c1ccccc1 [phenyl vinyl sulfone]
- Covalent adduct formation with SHP2 (QTOF ESI-MS) (SHP2 [3]): formed a covalent adduct
